Values of other authors as cited in US6521254B2, “Single-dose antihistamine/decongestant formulations for treating rhinitis” (J-Med Pharmaceuticals, Inc., priority 1998, dated 2003).

What was measured:
[1] = compared with other non-sedating and with sedating antihistamines
histamine receptors = details: for duration of therapeutic benefit suitable for dosing interval (FDA standard, labeling): cetirizine 5 mg and 10 mg, loratidine 10 mg, fexofenadine 180 mg
[2] = 30 mg pseudoephedrine, immediate release, syrup

Row | Structure (SMILES) | sedation [1] | duration of therapeutic antihistaminic benefit (histamine receptors; 5 mg cetirizine, immediate release) | duration of therapeutic benefit suitable for dosing interval (FDA standard, labeling) (histamine receptors) | duration of antihistaminic effect (histamine receptors; oral, human) | time after dosing at which antihistaminic effect is exerted (onset) (histamine receptors; oral, human, given alone / immediate release) | duration of action [2]
1 | O=C(O)COCCN1CCN(C(c2ccccc2)c2ccc(Cl)cc2)CC1 (centres unmarked) [cetirizine] | slightly more sedation than other non-sedating antihistamines | 24 h | 24 h | 24 h | one | 
2 | CCOC(=O)N1CCC(=C2c3ccc(Cl)cc3CCc3cccnc32)CC1 [loratidine] |  |  | 24 h | > 24 h |  | 
3 | CN[C@@H](C)[C@@H](O)c1ccccc1 [pseudoephedrine] |  |  |  |  |  | 4 to 6 h
